Test results taken from patent US20250340569A1, “INHIBITORS OF KIF18A AND USES THEREOF” (Insilico Medicine IP Limited, priority 2023, published 2025).

How the values were obtained:
[1] = target: T1, Kif18A (Homo sapiens, UniProt Q8NI77); experiment: KIF18A assay (ADP Glo); conditions: biochemical assay, ADP Glo luminescence
T1 sequence (Q8NI77 1-898): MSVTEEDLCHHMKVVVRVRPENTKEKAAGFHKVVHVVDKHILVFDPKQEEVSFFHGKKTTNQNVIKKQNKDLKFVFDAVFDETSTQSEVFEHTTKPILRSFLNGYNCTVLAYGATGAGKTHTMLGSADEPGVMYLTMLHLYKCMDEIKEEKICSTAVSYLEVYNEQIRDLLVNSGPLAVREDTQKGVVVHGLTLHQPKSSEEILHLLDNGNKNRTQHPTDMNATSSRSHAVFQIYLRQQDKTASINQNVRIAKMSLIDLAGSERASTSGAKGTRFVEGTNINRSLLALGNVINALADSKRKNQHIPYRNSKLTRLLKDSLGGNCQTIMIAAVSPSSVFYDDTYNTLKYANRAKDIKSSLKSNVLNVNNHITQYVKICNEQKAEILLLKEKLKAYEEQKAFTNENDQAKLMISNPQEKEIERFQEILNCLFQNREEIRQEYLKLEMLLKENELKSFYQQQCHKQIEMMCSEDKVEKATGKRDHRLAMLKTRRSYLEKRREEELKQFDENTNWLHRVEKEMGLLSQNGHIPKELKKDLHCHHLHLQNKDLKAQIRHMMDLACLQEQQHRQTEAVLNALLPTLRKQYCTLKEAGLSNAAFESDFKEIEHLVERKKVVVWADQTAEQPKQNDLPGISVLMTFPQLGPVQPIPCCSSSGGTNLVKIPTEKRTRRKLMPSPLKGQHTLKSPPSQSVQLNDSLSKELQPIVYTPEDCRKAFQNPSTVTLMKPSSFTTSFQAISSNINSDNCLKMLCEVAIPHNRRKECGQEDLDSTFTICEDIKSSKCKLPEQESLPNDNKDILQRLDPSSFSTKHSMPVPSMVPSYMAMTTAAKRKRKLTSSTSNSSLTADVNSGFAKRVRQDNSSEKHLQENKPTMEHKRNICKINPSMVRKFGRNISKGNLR
Protocol: The KIF18A assay was performed as follows:
1.1. Prepared 1× Kinase Buffer
• a) Added 40 μL test compound to 384-well dilution plate • b) Diluted compound 1:3 in succession in DMSO for each column for 10 pts • c) Transferred 0.1 μL diluted compound solution to 384 assay plate using Echo, each column containing 2 replicates • d) Added 5 μL enzyme working solution to 384-well assay plate, centrifuge 1000 RPM for 1 min e) Incubated at 25° C. for 15 min • f) Added 5 μL ATP working solution to initiate reaction • g) Incubated at 25° C. for 60 min • h) Added 10 μL ADP Glo reagent, centrifuge 1000 RPM for 1 min • i) Incubated at 25° C. for 60 min • j) Added 20 μL kinase detection reagent, centrifuge 1000 RPM for 1 min • k) Incubated at 25° C. for 60 min • l) Read Luminescence Signal on Envision 2104 plate reader.
1.3. Data Analysis—Calculated IC50 and Plot Dose-Response Curve of Compounds:
Calculated IC50 by fitting % Inhibition values and log of compound concentrations to nonlinear regression (dose response−variable slope) with GraphPad 6.0.
[formula] • X: log of inhibitor concentration; Y: % Inhibition

[2] = tested on: OVCAR-3; experiment: OVCAR3 CTG assay; assay type: cell-based; conditions: Homo sapiens, OVCAR-3, 144 h; CellTiter-Glo, 6 days incubation
Description: Example B2: OVCAR3 CTG Assay
• a) Preparation of complete medium: Added FBS and appropriate additives according to the information sheet provided by the vendor. Mix gently. • b) Checked the cell name and complete medium and passage number marked on the flask. For adherent cell lines, refer to c to k. For suspension cell lines, refer to g to k. • c) Removed and discarded culture medium using a vacuum pump. • d) Briefly rinsed the cell layer with 0.25% (w/v) Trypsin-0.038% (w/v) EDTA solution to remove all traces of serum that contains trypsin inhibitor. • e) Added 3.0 ml of Trypsin-EDTA solution to flask and observed cells under an inverted microscope until cell layer is dispersed. • f) Added 9.0 ml of complete growth medium and aspirated cells by gently pipetting. • g) Transfered the cell suspension to a centrifuge tube and centrifuged at 1000 rpm for 4 minutes. • h) Discarded the supernatant using a vacuum pump. • i) Added appropriate volume of complete medium. Suspended the cell pellet by gently pipetting. • j) Counted the cell numbers with Vi-cell XR and adjusted cells to appropriate density. • k) Added 190 μL of cell suspension to 96-well opaque-walled clear bottom plates according to the planned plate layout and placed the plates in the CO2 incubator overnight.
2) Compound Stock Preparation:
• a) Plate preparation of testing articles:
The compounds were dissolved in DMSO to prepare 10 mM stock solution. The start working concentration (2 mM) was prepared with DMSO.
b) Staurosporine Plate Preparation:
0.4 mM Staurosporine was prepared in DMSO at working concentration.
The 20× compound containing medium was prepared according to the plate map. 10 μL of 20× compound containing medium was added into each well of the assay plates. Centrifuged at 1000 rpm for 1 minute. The total dilution was 200-fold.
3) Cells were Incubated with the Compounds for 6 Days at 5% CO2, 37° C.
Assay Measurement for CTG Assay
1) Preparation of Reagents
• a) Thawed the CellTiter-Glo buffer and equilibrated to room temperature prior to use. • b) Equilibrated the lyophilized CellTiter-Glo substrate to room temperature prior to use. • c) Transfered the appropriate volume of CellTiter-Glo buffer into the amber bottle containing CellTiter-Glo substrate to reconstitute the lyophilized enzyme/substrate mixture. This formed the CellTiter-Glo reagent. • d) Mixed by gently vortexing, swirling or by inverting the contents to obtain a homogeneous solution. The CellTiter-Glo substrate went into solution easily in less than one minute.
• a) Observed the cell morphology under an inverted microscope after corresponding treatment. • b) Equilibrated the plate and its contents to room temperature for approximately 30 minutes. • c) Added 100 μL of CellTiter-Glo reagent to the assay plate by Multidrop Combi instrument. • d) Mixed contents for 10 minutes on an orbital shaker to induce cell lysis. • e) Allowed the plate to incubate at room temperature for 10 minutes to stabilize luminescent signal. • f) Pasted the clear bottom with white back seal and record luminescence with Envision. The settings should be: Luminescence, measurement time 0.1 s.

Structure (SMILES)	IC50 [1] [nM]	IC50 [2] [nM]
Cc1cc2nc(n1)NCCOC[C@@H]1CCC[C@H](COc3cc(NS(=O)(=O)CCO)ccc3C(=O)N2)C1 (relative stereo) [EX106]	100 to 1000	1000 to 10000
CC1CCCC2(C(F)(F)F)CCN(CC2)c2cc(NS(=O)(=O)CCO)ncc2C(=O)Nc2cccc(n2)NC1 (single isomer, unassigned) [EX100-B]	< 10	< 10
CC12CCN(CC1)c1cc(NS(=O)(=O)CCO)ccc1C(=O)Nc1cccc(n1)OCCOC2 [EX01]	10 to 100	100 to 1000
CC12CCN(CC1)c1cc(NS(=O)(=O)CCO)ccc1C(=O)Nc1cccc(n1)OCCCOC2 [EX02]	< 10	10 to 100
Cc1cc2nc(n1)OCCOCC1(C)CCN(CC1)c1cc(NS(=O)(=O)CCO)ccc1C(=O)N2 [EX03]	10 to 100	100 to 1000
Cc1cc2nc(n1)NCC(O)COCC1(C)CCN(CC1)c1cc(NS(=O)(=O)CCO)ccc1C(=O)N2 (centres unmarked) [EX40]	10 to 100	–
CCS(=O)(=O)Nc1ccc2c(c1)N1CCC(C(F)(F)F)(CC1)COC[C@@H](C)CNc1cccc(n1)NC2=O [EX88-A]	–	10 to 100
CCS(=O)(=O)Nc1ccc2c(c1)N1CCC(C(F)(F)F)(CC1)COC[C@H](C)CNc1cccc(n1)NC2=O [EX88-B]	–	< 10
CN1CCCCCC2(C(F)(F)F)CCN(CC2)c2cc(NS(=O)(=O)CCO)ncc2C(=O)Nc2cccc1n2 [EX89]	–	10 to 100
CN1CCCCCC2(C(F)(F)F)CCN(CC2)c2cc(NS(=O)(=O)CCO)ccc2C(=O)Nc2ccnc1n2 [EX90]	–	10 to 100
CN1CCC/C=C/C2(C(F)(F)F)CCN(CC2)c2cc(NS(=O)(=O)CCO)ccc2C(=O)Nc2ccnc1n2 [EX91]	–	10 to 100
O=C1Nc2cccc(n2)N2CCO[C@H](COCC3(C(F)(F)F)CCN(CC3)c3cc(NS(=O)(=O)CCO)ncc31)C2 [EX92-A]	–	10 to 100
O=C1Nc2ccnc(n2)N2CCO[C@H](COCC3(C(F)(F)F)CCN(CC3)c3cc(NS(=O)(=O)CCO)ccc31)C2 [EX93-A]	–	< 10
O=C1Nc2ccnc(n2)N2CCO[C@@H](COCC3(C(F)(F)F)CCN(CC3)c3cc(NS(=O)(=O)CCO)ccc31)C2 [EX93-B]	–	10 to 100
CN1CCCOCC2(C(F)(F)F)CCN(CC2)c2cc(NS(=O)(=O)CCO)ccc2C(=O)Nc2cc(Cl)nc1n2 [EX94]	–	100 to 1000
CN1CCCOCC2(C(F)F)CCN(CC2)c2cc(NS(=O)(=O)CCO)ccc2C(=O)Nc2ccnc1n2 [EX95]	–	10 to 100
Cc1cc2nc(n1)N1CCO[C@H](COCC3(C(F)(F)F)CCN(CC3)c3cc(NS(=O)(=O)CCO)ccc3C(=O)N2)C1 [EX96-A]	–	< 10
CCS(=O)(=O)Nc1cc2c(cn1)C(=O)Nc1cccc(n1)N(C)CCCOCC1(C(F)(F)F)CCN2CC1 [EX97]	–	10 to 100

Structure (SMILES)	IC50 [1] [nM]	IC50 [2] [nM]
CCS(=O)(=O)Nc1cc2c(cn1)C(=O)Nc1cccc(n1)N(C)CCCCCC1(C(F)(F)F)CCN2CC1 [EX98]	–	100 to 1000
CN1CCCOCC2(C(F)(F)F)CCN(CC2)c2cc(NS(=O)(=O)CCO)ccc2C(=O)Nc2cc(Cl)cc1n2 [EX99]	–	100 to 1000
C[C@@H]1CCCC2(C(F)(F)F)CCN(CC2)c2cc(NS(=O)(=O)CCO)ncc2C(=O)Nc2cccc(n2)NC1 [EX100-A]	–	10 to 100
CCS(=O)(=O)Nc1cc2c(cn1)C(=O)Nc1cccc(n1)NC[C@H](C)CCCC1(C(F)(F)F)CCN2CC1 [EX101-A]	–	10 to 100
CCS(=O)(=O)Nc1cc2c(cn1)C(=O)Nc1cccc(n1)NC[C@@H](C)CCCC1(C(F)(F)F)CCN2CC1 [EX101-B]	–	< 10
C[C@H]1CCCC2(C(F)F)CCN(CC2)c2cc(NS(=O)(=O)CCO)ccc2C(=O)Nc2cccc(n2)NC1 [EX102-B]	–	< 10
O=C1Nc2cccc(n2)NCCCCCC2(C(F)(F)F)CCN(CC2)c2cc(NS(=O)(=O)CCO)ccc21 [EX103]	–	< 10
CN1CCCCCC2(C(F)(F)F)CCN(CC2)c2cc(NS(=O)(=O)CCO)c(F)cc2C(=O)Nc2cccc1n2 [EX104]	–	10 to 100
C[C@@H]1CCCC2(C(F)(F)F)CCN(CC2)c2cc(NS(=O)(=O)CCO)c(F)cc2C(=O)Nc2cccc(n2)NC1 [EX105-A]	–	< 10
C[C@@H]1CCOCC2(C(F)(F)F)CCN(CC2)c2cc(NS(=O)(=O)CCO)ccc2C(=O)Nc2cccc(n2)N1 [EX107-A]	–	100 to 1000
C[C@H]1CCOCC2(C(F)(F)F)CCN(CC2)c2cc(NS(=O)(=O)CCO)ccc2C(=O)Nc2cccc(n2)N1 [EX107-B]	–	10 to 100
CN1CC(F)(F)COCC2(C(F)(F)F)CCN(CC2)c2cc(NS(=O)(=O)CCO)ccc2C(=O)Nc2cccc1n2 [EX108]	–	100 to 1000
O=C1Nc2cccc(n2)NCC(F)(F)COCC2(C(F)(F)F)CCN(CC2)c2cc(NS(=O)(=O)CCO)ccc21 [EX109]	–	10 to 100
CN1CCCOCC2(C(F)F)CCN(CC2)c2cc(NS(=O)(=O)CCO)ccc2C(=O)Nc2cccc1n2 [EX110]	–	10 to 100
Cc1cc2nc(n1)N1CCO[C@H](CCCC3(C(F)(F)F)CCN(CC3)c3cc(NS(=O)(=O)CCO)ccc3C(=O)N2)C1 [EX111-A]	–	100 to 1000
Cc1cc2nc(n1)N1CCO[C@@H](CCCC3(C(F)(F)F)CCN(CC3)c3cc(NS(=O)(=O)CCO)ccc3C(=O)N2)C1 [EX111-B]	–	10 to 100
Cc1cc2nc(n1)N1CCO[C@@H](COCC3(C(F)F)CCN(CC3)c3cc(NS(=O)(=O)CCO)ccc3C(=O)N2)C1 [EX113-B]	–	10 to 100
Cc1cc2nc(n1)N1CCC(F)(F)[C@H](CCCC3(C)CCN(CC3)c3cc(NS(=O)(=O)CCO)ccc3C(=O)N2)C1 [EX115-A]	–	100 to 1000
